Active and inactive are the calls of the source. The rule behind the calls is not given here.
The compounds below were run against T1, Prolyl endopeptidase (Homo sapiens) (UniProt P48147) (assay: Displacement of fluorophosphonate rhodamine from human cloned prolyl oligopeptidase expressed in Escherichia coli at 5 to 100 uM by SDS-PAGE).
T1 sequence (whole entry): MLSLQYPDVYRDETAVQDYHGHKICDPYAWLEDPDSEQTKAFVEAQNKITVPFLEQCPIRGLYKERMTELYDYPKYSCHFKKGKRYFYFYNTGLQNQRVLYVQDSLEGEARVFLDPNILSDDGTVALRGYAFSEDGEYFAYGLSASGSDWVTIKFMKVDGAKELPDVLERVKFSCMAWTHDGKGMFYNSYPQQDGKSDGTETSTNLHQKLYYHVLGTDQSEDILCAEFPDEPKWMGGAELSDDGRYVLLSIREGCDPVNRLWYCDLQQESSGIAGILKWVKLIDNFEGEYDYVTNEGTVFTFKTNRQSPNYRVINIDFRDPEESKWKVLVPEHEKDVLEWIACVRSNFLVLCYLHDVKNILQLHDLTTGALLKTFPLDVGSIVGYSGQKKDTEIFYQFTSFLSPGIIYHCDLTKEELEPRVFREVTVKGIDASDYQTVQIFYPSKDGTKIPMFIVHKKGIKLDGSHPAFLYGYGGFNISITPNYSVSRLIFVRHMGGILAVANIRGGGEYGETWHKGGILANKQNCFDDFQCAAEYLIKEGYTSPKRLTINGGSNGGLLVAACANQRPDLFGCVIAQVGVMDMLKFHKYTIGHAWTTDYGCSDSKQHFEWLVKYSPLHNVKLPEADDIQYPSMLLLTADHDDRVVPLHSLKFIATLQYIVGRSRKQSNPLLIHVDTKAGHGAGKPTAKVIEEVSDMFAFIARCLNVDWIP
`C#CCCCC(=O)N[C@@H](Cc1ccc(C(=O)c2ccccc2)cc1)C(=O)NCCOCCOCCOCCOCC(=O)N1CCC[C@H]1C(=O)N1CCC[C@H]1C=O` was tested, and the Activity was “Active”. In the case of `C#CCCCC(=O)N[C@@H](Cc1ccc(C(=O)c2ccccc2)cc1)C(=O)NCCCCCC(=O)N1CCC[C@H]1C(=O)N1CCC[C@H]1C=O`, the Activity is reported as “Active”. With `C#CCCCC(=O)N[C@@H](Cc1ccc(C(=O)c2ccccc2)cc1)C(=O)N1CCC[C@H]1C(=O)N1CCC[C@H]1C=O` the Activity was “Active”.
